Tested on: children up to 5 years of age
Test: Cross-sectional correlation (GLM) of formula nutrient composition with brain myelination
Format: in vivo, human
Settings: 5 most used formulas; voxel-wise correlations, p<0.05 corrected; inter-variable correlation threshold 0.9
Method: MRI brain scans of infants and children between 0 and 5 years were acquired using a white matter imaging technique. This technique provides a quantitative measure, the Myelin Water Fraction (MWF), which is a surrogate marker of myelin content. When mapped as a function of time across early childhood, myelination trajectories can be generated.
Infant formula composition: six infant formulas fed to infants participating in study were analyzed for their composition/level of myelin-relevant nutrients.
Each infant was scanned using the mcDESPOT (multicomponent Driven Equilibrium Single Pulse Observation of T1 and T2) white matter imaging technique Deoni et al. (Magn. Reson. Med. 2008, 60:1372-1387), which provides a quantitative measure of the myelin water fraction (MWF) at each imaging point throughout the brain. All infants were scanned during natural (i.e. non-sedated) sleep using acoustically-muffled mcDESPOT imaging protocols. Total imaging times ranged from 19 minutes for the youngest toddlers to 24 minutes for the older 4 year-old children.
Following image alignment, non-brain signal removal, and correction for main and transmit magnetic field (B0 and B1) inhomogeneities, a three-pool signal model (comprising the myelin-associated water; intra-extra axonal water; and a non-exchanging free-water pool) was fit to the mcDESPOT data to derive voxel-wise MWF maps.
Each child's map was then non-linearly aligned to a study specific template. White matter masks, corresponding to 5 bilateral regions (frontal, temporal, occipital, parietal, and cerebellar WM) as well as the body, genu, and splenium of the corpus callosum were created from common databases, registered to the common template, and superimposed onto each child's MWF map. Mean values for each region were then determined for each child and used for subsequent developmental analysis and trajectory modeling.
From the cohort described above, children up to 5 years of age that were fed different infant formulas during infancy were included in a large correlation analysis to examine the relationship between formula nutrient composition and brain myelination. The 5 most frequently used formulas in that cohort were analyzed for their nutritional composition. A single general linear model (GLM) was constructed that modeled all quantified nutrients, sphingomyelin, and child age. Voxel-wise correlations were calculated with significance defined as p<0.05 corrected for type 1 error using a cluster based correction approach.
To reduce the number of variables in the model, we examined the inter-variable correlation.

| Compound | Nutritional driver for myelination in the final general linear model |
| --- | --- |
| CCCCC/C=C\C/C=C\C/C=C\C/C=C\CCCC(=O)O [ARA, arachidonic acid] | identified drivers |
| [Ca] [Calcium] | identified drivers |
| C[N+](C)(C)CCO [Choline] | identified drivers |
| Nc1nc2ncc(CNc3ccc(C(=O)N[C@@H](CCC(=O)O)C(=O)O)cc3)nc2c(=O)[nH]1 [Folic Acid, folic acid] | identified drivers |
| [Mg] [Magnesium] | identified drivers |
| [P] [Phosphorus] | identified drivers |
| Iron | identified drivers |
| Vitamin B12 | identified drivers |
| Zinc | identified drivers |
| phosphatidyinositol | nutritional drivers for myelination |
| phosphatidylcholine | nutritional drivers for myelination |
| sphingomyelin | nutritional drivers for myelination |

Same assay, conditions: in particular cerebellum, internal capsule, visual cortex, frontal lobe

| Compound | Association with myelination (myelin water fraction) over time in the brain |
| --- | --- |
| sphingomyelin | significant association with myelination |

Reference: patent US20180360091A1, “NUTRITIONAL COMPOSITIONS AND INFANT FORMULAS TO PROMOTE MYELINATION IN THE BRAIN” (NESTEC S.A., priority 2015, published 2018)
